Source: patent publication US10538555B2, “Macrocyclic inhibitors of the PD-1/PD-L1 and CD80(B7-1)/PD-L1 protein/protein interactions” (BRISTOL-MYERS SQUIBB COMPANY, priority 2014, dated 2020)
Where a SMILES comes first, the peptide text is derived from it. Bridges are numbered along the chain shown (N, C = ends). [ ]: non-standard residue; d: D form. Phe(3,4,5-F3) = N[C@@H](Cc1cc(F)c(F)c(F)c1)C(=O)O; NMeF = CN[C@@H](Cc1ccccc1)C(=O)O; dPip(4-aza) = O=C(O)[C@H]1CNCCN1; dHyp = O=C(O)[C@H]1C[C@H](O)CN1; NMeNle = CCCC[C@H](NC)C(=O)O; dPip = O=C(O)[C@H]1CCCCN1; hSer = N[C@@H](CCO)C(=O)O; Orn = NCCC[C@H](N)C(=O)O; dThz = O=C(O)[C@H]1CSCN1; Sar = CNCC(=O)O

What follows are molecules tested against T1, Human PD-L1/PD-1 (Homo sapiens, UniProt Q9NZQ7) (assay: HTRF Human PD-L1/PD-1 binding assay (PD-1-Ig/PD-L1-His)). Settings: PD-L1-His 10 nM, PD-1-Ig 20 nM; class symbol; read-out: HTRF Human PD-L1/PD-1 Binding Assay IC50 Range.
T1 construct: TVMV protease cleavage site (C); made in house; host or cells: HEK293T cells
T1 sequence (Q9NZQ7 with tags, fused parts or gaps): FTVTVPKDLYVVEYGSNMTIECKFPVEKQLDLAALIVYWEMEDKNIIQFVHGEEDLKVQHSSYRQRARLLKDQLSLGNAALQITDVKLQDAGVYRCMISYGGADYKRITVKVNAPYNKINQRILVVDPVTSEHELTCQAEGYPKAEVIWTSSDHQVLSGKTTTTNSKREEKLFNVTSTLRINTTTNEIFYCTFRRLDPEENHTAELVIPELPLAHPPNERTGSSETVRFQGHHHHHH
Method in brief: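 Soluble HEK293T-expressed proteins: hPD-L1-His 10 nM, hPD-1-Ig 20 nM final. Cpd + PD-L1 15 min, + PD-1 15 min, + Eu anti-Ig 1 nM/APC anti-His 20 nM 30 min. Buffer dPBS, 0.1% BSA, 0.05% Tween-20. TR-FRET 665/620.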
CCCC[C@H]1C(=O)N2C[C@@H](O)C[C@@H]2C(=O)N[C@@H](CC(=O)O)C(=O)N[C@@H](C)C(=O)N(C)[C@@H](Cc2ccccc2)C(=O)N[C@@H](Cc2ccc(O)cc2)C(=O)N(C)CC(=O)N[C@@H](Cc2c[nH]c3ccccc23)C(=O)N[C@@H](Cc2ccc(O)cc2)C(=O)N[C@@H](CC(C)C)C(=O)N[C@H](C(=O)NCC(N)=O)CSCC(=O)N[C@@H](Cc2ccccc2)C(=O)N(C)[C@@H](Cc2ccccc2)C(=O)N1C [Example 10086] ({CH2CO}-F[NMeF][NMeNle][dHyp]DA[NMeF]Y[Sar]WYLCG-NH2; thioether N-13) showed an IC50 of 10 to 99.9 nM.
Work on CCCC[C@H]1C(=O)N2CCC[C@@H]2C(=O)N[C@@H](CC(=O)O)C(=O)N[C@@H](C)C(=O)N(C)[C@@H](Cc2ccccc2)C(=O)N[C@@H](Cc2ccc(O)cc2)C(=O)N2CCCC[C@@H]2C(=O)N[C@@H](Cc2c[nH]c3ccccc23)C(=O)N[C@@H](Cc2ccc(O)cc2)C(=O)N[C@@H](CC(C)C)C(=O)N[C@H](C(=O)NCC(N)=O)CSCC(=O)N[C@@H](Cc2ccccc2)C(=O)N(C)[C@@H](Cc2ccccc2)C(=O)N1C [Example 10087] ({CH2CO}-F[NMeF][NMeNle][dP]DA[NMeF]Y[dPip]WYLCG-NH2; thioether N-13) yielded an IC50 of 10 to 99.9 nM.
CCCC[C@H]1C(=O)N2CCC[C@@H]2C(=O)N[C@@H](CC(=O)O)C(=O)N[C@@H](C)C(=O)N(C)[C@@H](Cc2ccccc2)C(=O)N[C@@H](Cc2ccc(O)cc2)C(=O)N2CSC[C@@H]2C(=O)N[C@@H](Cc2c[nH]c3ccccc23)C(=O)N[C@@H](Cc2ccc(O)cc2)C(=O)N[C@@H](CC(C)C)C(=O)N[C@H](C(=O)NCC(N)=O)CSCC(=O)N[C@@H](Cc2ccccc2)C(=O)N(C)[C@@H](Cc2ccccc2)C(=O)N1C [Example 10088] ({CH2CO}-F[NMeF][NMeNle][dP]DA[NMeF]Y[dThz]WYLCG-NH2; thioether N-13) was tested, and the IC50 was 10 to 99.9 nM.
Work on CCCC[C@H]1C(=O)N2CCC[C@@H]2C(=O)N[C@@H](CO)C(=O)N[C@@H](C(C)C)C(=O)N(C)[C@@H](Cc2ccccc2)C(=O)N[C@@H](Cc2ccc(O)cc2)C(=O)N2CSC[C@@H]2C(=O)N[C@@H](Cc2c[nH]c3ccccc23)C(=O)N[C@@H](Cc2ccc(O)cc2)C(=O)N[C@@H](CC(C)C)C(=O)N[C@H](C(=O)NCC(N)=O)CSCC(=O)N[C@@H](Cc2cc(F)c(F)c(F)c2)C(=O)N(C)[C@@H](Cc2ccccc2)C(=O)N1C [Example 10089] ({CH2CO}-[Phe(3,4,5-F3)][NMeF][NMeNle][dP]SV[NMeF]Y[dThz]WYLCG-NH2; thioether N-13) yielded an IC50 of 1 to 9.9 nM.
Molecule CCCC[C@H]1C(=O)N2CCC[C@@H]2C(=O)N[C@@H](CC(=O)O)C(=O)N[C@@H](C(C)C)C(=O)N(C)[C@@H](Cc2ccccc2)C(=O)N[C@@H](CCC(=O)O)C(=O)N2CSC[C@@H]2C(=O)N[C@@H](Cc2c[nH]c3ccccc23)C(=O)N[C@@H](Cc2ccc(O)cc2)C(=O)N[C@@H](CC(C)C)C(=O)N[C@H](C(=O)NCC(N)=O)CSCC(=O)N[C@@H](Cc2cc(F)c(F)c(F)c2)C(=O)N(C)[C@@H](Cc2ccccc2)C(=O)N1C [Example 10090] ({CH2CO}-[Phe(3,4,5-F3)][NMeF][NMeNle][dP]DV[NMeF]E[dThz]WYLCG-NH2; thioether N-13) has an IC50 of 1 to 9.9 nM.
For CCCC[C@H]1C(=O)N2CCC[C@@H]2C(=O)N[C@@H](CC(=O)O)C(=O)N[C@@H](C(C)C)C(=O)N(C)[C@@H](Cc2ccccc2)C(=O)N[C@@H](Cc2ccc(O)cc2)C(=O)N2CSC[C@@H]2C(=O)N[C@@H](Cc2c[nH]c3ccccc23)C(=O)N[C@@H](Cc2ccc(O)cc2)C(=O)N[C@@H](CC(C)C)C(=O)N[C@H](C(=O)NCC(N)=O)CSCC(=O)N[C@@H](Cc2cc(F)c(F)c(F)c2)C(=O)N(C)[C@@H](Cc2ccccc2)C(=O)N1C [Example 10092] ({CH2CO}-[Phe(3,4,5-F3)][NMeF][NMeNle][dP]DV[NMeF]Y[dThz]WYLCG-NH2; thioether N-13), the IC50 was 1 to 9.9 nM.
CCCC[C@H]1C(=O)N2CSC[C@@H]2C(=O)N[C@@H](CC(=O)O)C(=O)N[C@@H](C(C)C)C(=O)N(C)[C@@H](Cc2ccccc2)C(=O)N[C@@H](Cc2ccc(O)cc2)C(=O)N2CCC[C@@H]2C(=O)N[C@@H](Cc2c[nH]c3ccccc23)C(=O)N[C@@H](Cc2ccc(O)cc2)C(=O)N[C@@H](CC(C)C)C(=O)N[C@H](C(=O)NCC(N)=O)CSCC(=O)N[C@@H](Cc2cc(F)c(F)c(F)c2)C(=O)N(C)[C@@H](Cc2ccccc2)C(=O)N1C [Example 10093] ({CH2CO}-[Phe(3,4,5-F3)][NMeF][NMeNle][dThz]DV[NMeF]Y[dP]WYLCG-NH2; thioether N-13) showed an IC50 of 1 to 9.9 nM.
CCCC[C@H]1C(=O)N2CCC[C@@H]2C(=O)N[C@@H](CC(=O)O)C(=O)N[C@@H](C(C)C)C(=O)N(C)[C@@H](Cc2ccccc2)C(=O)N[C@@H](Cc2ccc(O)cc2)C(=O)N2CCC[C@@H]2C(=O)N[C@@H](Cc2c[nH]c3ccccc23)C(=O)N[C@@H](Cc2ccc(O)cc2)C(=O)N[C@@H](CO)C(=O)N[C@H](C(=O)NCC(N)=O)CSCC(=O)N[C@@H](Cc2cc(F)c(F)c(F)c2)C(=O)N(C)[C@@H](Cc2ccccc2)C(=O)N1C [Example 10094] ({CH2CO}-[Phe(3,4,5-F3)][NMeF][NMeNle][dP]DV[NMeF]Y[dP]WYSCG-NH2; thioether N-13) was tested, and the IC50 was 1 to 9.9 nM.
CCCC[C@H]1C(=O)N2CCC[C@@H]2C(=O)N[C@@H](CC(=O)O)C(=O)N[C@@H](C(C)C)C(=O)N(C)[C@@H](Cc2ccccc2)C(=O)N[C@@H](Cc2ccc(O)cc2)C(=O)N2CCC[C@@H]2C(=O)N[C@@H](Cc2c[nH]c3ccccc23)C(=O)N[C@@H](Cc2ccc(O)cc2)C(=O)N[C@@H](CCO)C(=O)N[C@H](C(=O)NCC(N)=O)CSCC(=O)N[C@@H](Cc2cc(F)c(F)c(F)c2)C(=O)N(C)[C@@H](Cc2ccccc2)C(=O)N1C [Example 10095] ({CH2CO}-[Phe(3,4,5-F3)][NMeF][NMeNle][dP]DV[NMeF]Y[dP]WY[hSer]CG-NH2; thioether N-13) showed an IC50 of 1 to 9.9 nM.
CCCC[C@H]1C(=O)N2CCC[C@@H]2C(=O)N[C@@H](CC(=O)O)C(=O)N[C@@H](C(C)C)C(=O)N(C)[C@@H](Cc2ccccc2)C(=O)N[C@@H](Cc2ccc(O)cc2)C(=O)N2CCC[C@@H]2C(=O)N[C@@H](Cc2c[nH]c3ccccc23)C(=O)N[C@@H](Cc2ccc(O)cc2)C(=O)N[C@@H](CCCCN)C(=O)N[C@H](C(=O)NCC(N)=O)CSCC(=O)N[C@@H](Cc2cc(F)c(F)c(F)c2)C(=O)N(C)[C@@H](Cc2ccccc2)C(=O)N1C [Example 10096] ({CH2CO}-[Phe(3,4,5-F3)][NMeF][NMeNle][dP]DV[NMeF]Y[dP]WYKCG-NH2; thioether N-13) showed an IC50 of 1 to 9.9 nM.
CCCC[C@H]1C(=O)N2CCC[C@@H]2C(=O)N[C@@H](CC(=O)O)C(=O)N[C@@H](C(C)C)C(=O)N(C)[C@@H](Cc2ccccc2)C(=O)N[C@@H](Cc2ccc(O)cc2)C(=O)N2CCC[C@@H]2C(=O)N[C@@H](Cc2c[nH]c3ccccc23)C(=O)N[C@@H](Cc2ccc(O)cc2)C(=O)N[C@@H](CCC(=O)O)C(=O)N[C@H](C(=O)NCC(N)=O)CSCC(=O)N[C@@H](Cc2cc(F)c(F)c(F)c2)C(=O)N(C)[C@@H](Cc2ccccc2)C(=O)N1C [Example 10097] ({CH2CO}-[Phe(3,4,5-F3)][NMeF][NMeNle][dP]DV[NMeF]Y[dP]WYECG-NH2; thioether N-13) gave an IC50 of 1 to 9.9 nM.
In the case of CCCC[C@H]1C(=O)N2CCC[C@@H]2C(=O)N[C@@H](CC(=O)O)C(=O)N[C@@H](C(C)C)C(=O)N(C)[C@@H](Cc2ccccc2)C(=O)N[C@@H](Cc2ccc(O)cc2)C(=O)N2CCC[C@@H]2C(=O)N[C@@H](Cc2c[nH]c3ccccc23)C(=O)N[C@@H](Cc2ccc(O)cc2)C(=O)N[C@@H](CCCN)C(=O)N[C@H](C(=O)NCC(N)=O)CSCC(=O)N[C@@H](Cc2cc(F)c(F)c(F)c2)C(=O)N(C)[C@@H](Cc2ccccc2)C(=O)N1C [Example 10098] ({CH2CO}-[Phe(3,4,5-F3)][NMeF][NMeNle][dP]DV[NMeF]Y[dP]WY[Orn]CG-NH2; thioether N-13), the IC50 is reported as 1 to 9.9 nM.
Molecule CCCC[C@H]1C(=O)N2CCC[C@@H]2C(=O)N[C@@H](CC(=O)O)C(=O)N[C@@H](C(C)C)C(=O)N(C)[C@@H](Cc2ccccc2)C(=O)N[C@@H](Cc2ccc(O)cc2)C(=O)N2CCC[C@@H]2C(=O)N[C@@H](Cc2c[nH]c3ccccc23)C(=O)N[C@@H](Cc2ccc(O)cc2)C(=O)N[C@@H](CC(=O)O)C(=O)N[C@H](C(=O)NCC(N)=O)CSCC(=O)N[C@@H](Cc2cc(F)c(F)c(F)c2)C(=O)N(C)[C@@H](Cc2ccccc2)C(=O)N1C [Example 10099] ({CH2CO}-[Phe(3,4,5-F3)][NMeF][NMeNle][dP]DV[NMeF]Y[dP]WYDCG-NH2; thioether N-13) has an IC50 of 1 to 9.9 nM.
For CCCC[C@H]1C(=O)N2CCC[C@@H]2C(=O)N[C@@H](CC(=O)O)C(=O)N[C@@H](C(C)C)C(=O)N(C)[C@@H](Cc2ccccc2)C(=O)N[C@@H](Cc2ccc(O)cc2)C(=O)N2CCNC[C@@H]2C(=O)N[C@@H](Cc2c[nH]c3ccccc23)C(=O)N[C@@H](Cc2ccc(O)cc2)C(=O)N[C@@H](CC(C)C)C(=O)N[C@H](C(=O)NCC(N)=O)CSCC(=O)N[C@@H](Cc2cc(F)c(F)c(F)c2)C(=O)N(C)[C@@H](Cc2ccccc2)C(=O)N1C [Example 10100] ({CH2CO}-[Phe(3,4,5-F3)][NMeF][NMeNle][dP]DV[NMeF]Y[dPip(4-aza)]WYLCG-NH2; thioether N-13), the IC50 was 1 to 9.9 nM.

Same assay, conditions: PD-L1-His 10 nM, PD-1-Ig 20 nM; read-out: HTRF Human PD-L1/PD-1 Binding Assay IC50
Molecule CCCC[C@H]1C(=O)N2CCC[C@@H]2C(=O)N[C@@H](CC(=O)O)C(=O)N[C@@H](C(C)C)C(=O)N(C)[C@@H](Cc2ccccc2)C(=O)N[C@@H](CC(=O)O)C(=O)N2CSC[C@@H]2C(=O)N[C@@H](Cc2c[nH]c3ccccc23)C(=O)N[C@@H](Cc2ccc(O)cc2)C(=O)N[C@@H](CC(C)C)C(=O)N[C@H](C(=O)NCC(N)=O)CSCC(=O)N[C@@H](Cc2cc(F)c(F)c(F)c2)C(=O)N(C)[C@@H](Cc2ccccc2)C(=O)N1C [Example 10091] ({CH2CO}-[Phe(3,4,5-F3)][NMeF][NMeNle][dP]DV[NMeF]D[dThz]WYLCG-NH2; thioether N-13) has an IC50 of 2.5 nM.
